Test results reported in paper PMC6270201, “Eco-Friendly Synthesis and Antiproliferative Evaluation of Some Oxygen Substituted Diaryl Ketones” (Molecules, 2013).

How the values were obtained:
[1] = tested on: T24 (bladder) human-derived tumor cell line; test: MTT reduction antiproliferative assay, T24 bladder cells; type: cell-based; conditions: 48 h incubation, mean of at least three experiments, read-out: EC50 ± SEM T24
Procedure: (§1) The oxygen-substituted diaryl ketones 3–23 were evaluated for their in vitro antiproliferative activity on a panel of four cell lines, including non-tumor fibroblasts (Balb/3T3) and three human-derived tumor cell lines, namely DU-145 (prostate), T24 (bladder) and MCF7 (breast), using the conventional microculture tetrazolium reduction assay.
(§2) These values were calculated from their effects on MTT reduction in three cancer cell lines and Balb/3T3 non transformed mouse fibroblasts as a function of their concentration during 48 h of incubation. All three cancer cell lines were similarly sensitive to these compounds. […] The biological activity differences of compounds 12 and 22 with respect to their analogues could be attributed to the 3,4,5-trimethoxy substitution on the A-phenyl ring. According to literature precedents, the 3,4,5-trimethoxyphenyl ring is considered essential for the antitubulin activity of a broad variety of antimitotic compounds [36, 38, 39, 40, 41, 42, 43, 44, 45]. […] In this context, only compound 22 have a good mean selectivity index (2.45).
(§3) Human cancer cell lines (T24, DU-145, MCF7) were cultured in high-glucose Dulbecco's modified Eagle medium (Gibco, Grand Island, NY, USA) supplemented with 10% foetal calf serum, penicillin (100 U/mL), and streptomycin (100 μg/mL). Balb/3T3 cells (normal mouse fibroblasts) were cultured in the same medium, except that the foetal calf serum was replaced by 10% newborn calf serum. All cultures were kept at 37 °C in 95% air/5% CO2 at 100% humidity. Phosphate-buffered saline (PBS) was purchased from Gibco. Cells were incubated at the indicated times at 37 °C with or without hydroquinones at various concentrations.
(§4) The cytotoxicity of the bis aryl ketones was assessed by following the reduction of MTT (3-(4,5-dimethylthiazolyl-2)-2,5-diphenyltetrazolium bromide) to formazan blue. Briefly, cells were seeded into 96-well plates at a density of 10,000 cells/well for 24 h and then incubated for 48 h with or without the compounds. Cells were then washed twice with warm PBS and incubated with MTT (0.5 mg/mL) for 2 h at 37 °C. Incubation medium was thereafter discarded and the blue formazan crystals were solubilized by adding 100 μL DMSO/well. The colour solution was subsequently read at 550 nm. Results are expressed as % of MTT reduction compared to untreated control conditions. The calculation of EC50 values was performed by using GraphPad Prism software (San Diego, CA, USA).

[2] = tested on: MCF7 (breast) human-derived tumor cell line; test: MTT reduction antiproliferative assay, MCF7 breast cells; type: cell-based; conditions: 48 h incubation, mean of at least three experiments, read-out: EC50 ± SEM MCF-7
Procedure: as §1, §2, §3, §4

[3] = tested on: Balb/3T3 fibroblasts vs T24, DU-145 and MCF7 tumor cells; test: Mean selective index, fibroblasts versus tumor cells; type: cell-based; conditions: EC50 values fibroblasts/EC50 values tumor cells
Procedure: These values were calculated from their effects on MTT reduction in three cancer cell lines and Balb/3T3 non transformed mouse fibroblasts as a function of their concentration during 48 h of incubation.

[4] = tested on: Balb/3T3 non-tumor fibroblasts; test: MTT reduction assay, non-tumor fibroblasts; type: cell-based; conditions: Mus musculus, 48 h incubation, mean of at least three experiments, read-out: EC50 ± SEM BALB/3T3
Procedure: as §1, §2, §3, §4

[5] = tested on: DU-145 (prostate) human-derived tumor cell line; test: MTT reduction antiproliferative assay, DU-145 prostate cells; type: cell-based; conditions: 48 h incubation, mean of at least three experiments, read-out: EC50 ± SEM DU-145
Procedure: as §1, §2, §3, §4

NCI screen panel = tested on: NCI screen panel; parameters: method as in PMID 9572894; conditions: read-out: mean panel GI50 (growth inhibitory) value; cited from earlier work

COc1cccc2c1C(=O)c1c(O)c3c(c(O)c1C2=O)C[C@@](O)(C(=O)CO)C[C@@H]3O[C@H]1C[C@H](N)[C@H](O)[C@H](C)O1 [DOX, doxorubicin, reference compound]
EC50 [1]: 0.65 ± 0.07 µM | EC50 [2]: 0.33 ± 0.05 µM | MSI: Mean Selective Index [3]: 0.44 | EC50 [4]: 0.19 ± 0.01 µM | EC50 [5]: 0.42 ± 0.03 µM

CO[C@@]12[C@H](COC(N)=O)C3=C(C(=O)C(C)=C(N)C3=O)N1C[C@@H]1N[C@@H]12 [MIT, mitomycin C, reference compound]
EC50 [1]: 42.2 ± 5.8 µM | EC50 [2]: 16.8 ± 2.9 µM | EC50 [4]: 27.3 ± 3.3 µM | EC50 [5]: 14.3 ± 2.6 µM

O=C(c1ccccc1)c1cc(O)ccc1O [compound 3, (2,5-Dihydroxyphenyl)(phenyl)methanone]
EC50 [1]: 186 ± 20.4 µM | melting point: 121 to 122 °C | EC50 [2]: 190 ± 19.2 µM | MSI: Mean Selective Index [3]: 0.20 | EC50 [4]: 38.5 ± 5.5 µM | EC50 [5]: 205 ± 21.5 µM

Cc1ccccc1C(=O)c1cc(O)ccc1O [compound 4, (2,5-Dihydroxyphenyl)(2'-methylphenyl)methanone]
EC50 [1]: 172 ± 13.2 µM | melting point: 104 to 105 °C | EC50 [2]: 181 ± 15.8 µM | MSI: Mean Selective Index [3]: 1.06 | EC50 [4]: 184 ± 17.6 µM | EC50 [5]: 172 ± 19.7 µM

Cc1cccc(C(=O)c2cc(O)ccc2O)c1 [compound 5, (2,5-Dihydroxyphenyl)(3'-methylphenyl)methanone]
EC50 [1]: 202 ± 15.9 µM | melting point: 119 to 120 °C | EC50 [2]: 226 ± 24.2 µM | MSI: Mean Selective Index [3]: 0.49 | EC50 [4]: 100 ± 9.5 µM | EC50 [5]: 186 ± 17.8 µM

Cc1ccc(C(=O)c2cc(O)ccc2O)cc1 [compound 6, (2,5-Dihydroxyphenyl)(4'-methylphenyl)methanone]
EC50 [1]: 209 ± 19.5 µM | melting point: 135 to 136 °C | EC50 [2]: 142 ± 15.3 µM | MSI: Mean Selective Index [3]: 0.57 | EC50 [4]: 78.3 ± 6.4 µM | EC50 [5]: 101 ± 9.5 µM

COc1cccc(C(=O)c2cc(O)ccc2O)c1 [compound 7, (2,5-Dihydroxyphenyl)(3'-methoxyphenyl)methanone]
EC50 [1]: 210 ± 20.5 µM | melting point: 97 to 98 °C | EC50 [2]: 154 ± 12.3 µM | MSI: Mean Selective Index [3]: 0.68 | EC50 [4]: 118 ± 19.5 µM | EC50 [5]: 166 ± 15.8 µM

COc1ccc(C(=O)c2cc(O)ccc2O)cc1 [compound 8, (2,5-Dihydroxyphenyl)(4'-methoxyphenyl)methanone]
EC50 [1]: 168 ± 12.2 µM | melting point: 144 to 145 °C | EC50 [2]: 191 ± 17.5 µM | MSI: Mean Selective Index [3]: 0.49 | EC50 [4]: 85.2 ± 9.7 µM | EC50 [5]: 170 ± 15.5 µM

COc1ccc(OC)c(C(=O)c2cc(O)ccc2O)c1 [compound 9, (2,5-Dihydroxyphenyl)(2',5'-dimethoxyphenyl)methanone]
EC50 [1]: 150 ± 18.4 µM | melting point: 135 to 136 °C | EC50 [2]: 164 ± 13.8 µM | MSI: Mean Selective Index [3]: 0.29 | EC50 [4]: 43.7 ± 7.6 µM | EC50 [5]: 130 ± 12.5 µM

COc1ccc(C(=O)c2cc(O)ccc2O)cc1OC [compound 10, (2,5-Dihydroxyphenyl)(3,4-dimethoxyphenyl)methanone]
EC50 [1]: 147 ± 19.2 µM | melting point: 79 to 81 °C | EC50 [2]: 183 ± 17.7 µM | MSI: Mean Selective Index [3]: 0.23 | EC50 [4]: 35.4 ± 4.7 µM | EC50 [5]: 140 ± 13.6 µM

COc1cc(C(=O)c2cc(O)ccc2O)ccc1O [compound 11, (2,5-Dihydroxyphenyl)(4'-hydroxy-3'-methoxyphenyl)methanone]
EC50 [1]: 154 ± 14.5 µM | melting point: 221 to 222 °C | EC50 [2]: 177 ± 19.4 µM | MSI: Mean Selective Index [3]: 0.47 | EC50 [4]: 78 ± 9.3 µM | EC50 [5]: 168 ± 15.9 µM

COc1cc(C(=O)c2cc(O)ccc2O)cc(OC)c1OC [compound 12, (2,5-Dihydroxyphenyl)(3',4',5'-trimethoxyphenyl)methanone]
EC50 [1]: 3.6 ± 1.4 µM | melting point: 68 to 70 °C | EC50 [2]: 53.6 ± 6.7 µM | MSI: Mean Selective Index [3]: 0.57 | EC50 [4]: 1.5 ± 0.4 µM | EC50 [5]: 1.2 ± 0.6 µM

COc1cc(C(=O)c2cc(O)ccc2O)cc(OC)c1O [compound 13, (2,5-Dihydroxyphenyl)(4'-hydroxy-3',5'-dimethoxyphenyl)methanone]
EC50 [1]: > 350 µM | melting point: 200 to 201 °C | EC50 [2]: > 350 µM | EC50 [4]: 19.1 ± 3.1 µM | EC50 [5]: 113 ± 10.7 µM

Cc1ccccc1C(=O)c1cc(O)c2ccccc2c1O [compound 14, (1,4-Dihydroxynaphthalen-2-yl)(2'-methylphenyl)methanone]
EC50 [1]: 143 ± 9.5 µM | melting point: 132 to 133 °C | EC50 [2]: 152 ± 14.5 µM | MSI: Mean Selective Index [3]: 1.54 | EC50 [4]: 226 ± 25.4 µM | EC50 [5]: 144 ± 17.7 µM

Cc1cccc(C(=O)c2cc(O)c3ccccc3c2O)c1 [compound 15, (1,4-Dihydroxynaphthalen-2-yl)(3'-methylphenyl)methanone]
EC50 [1]: 137 ± 11.7 µM | melting point: 154 to 155 °C | EC50 [2]: 145 ± 12.7 µM | MSI: Mean Selective Index [3]: 0.99 | EC50 [4]: 142 ± 13.9 µM | EC50 [5]: 147 ± 15.9 µM

Cc1ccc(C(=O)c2cc(O)c3ccccc3c2O)cc1 [compound 16, (1,4-Dihydroxynaphthalen-2-yl)(4'-methylphenyl)methanone]
EC50 [1]: 135 ± 12.8 µM | melting point: 150 to 151 °C | EC50 [2]: 134 ± 14.9 µM | MSI: Mean Selective Index [3]: 0.98 | EC50 [4]: 139 ± 15.2 µM | EC50 [5]: 158 ± 13.7 µM

COc1cccc(C(=O)c2cc(O)c3ccccc3c2O)c1 [compound 17, (1,4-Dihydroxynaphthalen-2-yl)(3'-methoxyphenyl)methanone]
EC50 [1]: 133 ± 12.4 µM | melting point: 149 to 150 °C | EC50 [2]: 128 ± 13.6 µM | MSI: Mean Selective Index [3]: 0.82 | EC50 [4]: 109 ± 11.1 µM | EC50 [5]: 139 ± 11.3 µM

COc1ccc(C(=O)c2cc(O)c3ccccc3c2O)cc1 [compound 18, (1,4-Dihydroxynaphthalen-2-yl)(4'-methoxyphenyl)methanone]
EC50 [1]: 127 ± 10.6 µM | melting point: 150 to 151 °C | EC50 [2]: 125 ± 10.2 µM | MSI: Mean Selective Index [3]: 1.03 | EC50 [4]: 107 ± 12.3 µM | EC50 [5]: 77.5 ± 6.5 µM

COc1ccc(OC)c(C(=O)c2cc(O)c3ccccc3c2O)c1 [compound 19, (1,4-Dihydroxynaphthalen-2-yl)(2',5'-dimethoxyphenyl)methanone]
EC50 [1]: 130 ± 10.1 µM | melting point: 160 to 161 °C | EC50 [2]: > 310 µM | MSI: Mean Selective Index [3]: 0.77 | EC50 [4]: 100 ± 8.9 µM | EC50 [5]: 129 ± 17.2 µM

COc1ccc(C(=O)c2cc(O)c3ccccc3c2O)cc1OC [compound 20, (1,4-Dihydroxynaphthalen-2-yl)(3',4'-dimethoxyphenyl)methanone]
EC50 [1]: 46.8 ± 5.1 µM | melting point: 212 to 213 °C | EC50 [2]: 12.2 ± 3.8 µM | MSI: Mean Selective Index [3]: 0.11 | EC50 [4]: 2.8 ± 0.6 µM | EC50 [5]: 61.8 ± 5.6 µM

COc1cc(C(=O)c2cc(O)c3ccccc3c2O)ccc1O [compound 21, (1,4-Dihydroxynaphthalen-2-yl)(4'-hydroxy-3'-methoxyphenyl)methanone]
EC50 [1]: 86.6 ± 9.6 µM | melting point: 221 to 222 °C | EC50 [2]: 15.7 ± 4.6 µM | MSI: Mean Selective Index [3]: 0.45 | EC50 [4]: 15.7 ± 3.9 µM | EC50 [5]: 89 ± 7.3 µM

COc1cc(C(=O)c2cc(O)c3ccccc3c2O)cc(OC)c1OC [compound 22, (1,4-Dihydroxynaphthalen-2-yl)(3',4',5'-trimethoxyphenyl)methanone]
EC50 [1]: 13.5 ± 1.9 µM | melting point: 189 to 191 °C | EC50 [2]: 20.2 ± 4.5 µM | MSI: Mean Selective Index [3]: 2.45 | EC50 [4]: 25.1 ± 3.9 µM | EC50 [5]: 5.9 ± 0.8 µM

COc1cc(C(=O)c2cc(O)c3ccccc3c2O)cc(OC)c1O [compound 23, (1,4-Dihydroxynaphthalen-2-yl)(4'-hydroxy-3',5'-dimethoxyphenyl)methanone]
EC50 [1]: 112 ± 9.3 µM | melting point: 173 to 174 °C | EC50 [2]: 130 ± 14.8 µM | MSI: Mean Selective Index [3]: 0.84 | EC50 [4]: 99.6 ± 7.5 µM | EC50 [5]: 114 ± 9.5 µM

COc1ccc(C(=O)c2cc(OC)c(OC)c(OC)c2)cc1O [phenstatin]
GI50 (NCI screen panel): 0.0601 µM
